Patent publication US8524730B2, “Spirochromanone carboxylic acids” (MSD K.K., priority 2008, dated 2013)

Key:
human ACC1 = human ACC1 (Homo sapiens, UniProt Q13085); experiment: Acetyl CoA carboxylase (ACC) activity inhibition test, human ACC1; type: biochemical; conditions: 1 μmol/liter compound; read-out: Inhibition (%) by 1 μmol/liter Chemical, human ACC1
Method: (§1) A. Pharmacological Test Example (Acetyl CoA Carboxylase (ACC) Activity Inhibition Test)
(§2) A test compound is dissolved in dimethyl sulfoxide (DMSO) to a concentration of 10 mM and then diluted with DMSO to give a 100-fold concentrated solution of the compound compared with target assay concentration. The ACC enzyme activity inhibition test is carried out according to a modification of Thampy & Wakil's method (J. Biol. Chem., Vol. 260, pp. 6318-6323 (1985)). Concretely, 0.8 μl of the diluted test compound is added to each well of 96-well assay plate (Perkin Elmer Opti Plate), then 40 μl of a substrate solution (50 mM Hepes sodium (pH 7.5), 2 mM DTT, 10 mM ATP, 500 μM acetyl CoA, 0.17 mM NaH[^14C]O3 (58 mCi/mmol by Amersham), 8 mM NaHCO3) is added to each well, and 40 μL of an enzyme solution (1 to 2 nM human ACC1 or human ACC2, 50 mM Hepes sodium (pH 7.5), 2 mM DTT, 40 mM MgCl2, 40 mM tripotassium citrate 1 mg/ml fetal bovine serum albumin) is added thereto. Then, the upper side of the plate is sealed up, and the plate is incubated with gently stirring at 37° C. for 40 minutes. Next, 20 μl of 1 N HCl is added to each well to stop the enzyme reaction, and the assay plate is stirred overnight to remove the unreacted NaH[^14C]O3. Next, 100 μl of a scintillator (Perkin Elmer's Microscinti 40) is added to each well and the plate is stirred, then the radioactivity of the fixed [^14C] is counted using a microplate scintillation counter (Perkin Elmer's Topcount), the radioactivity of which represents the enzyme activity in each well. The human ACC1 and human ACC2 enzyme-inhibition activities of the test compounds are calculated, based on the radioactivity of the well added by DMSO without test compound as a control.

human ACC2 = human ACC2 (Homo sapiens, UniProt O00763); experiment: Acetyl CoA carboxylase (ACC) activity inhibition test, human ACC2; type: biochemical; conditions: 1 μmol/liter compound; read-out: Inhibition (%) by 1 μmol/liter Chemical, human ACC2
Sequence of human ACC2 (O00763 whole entry): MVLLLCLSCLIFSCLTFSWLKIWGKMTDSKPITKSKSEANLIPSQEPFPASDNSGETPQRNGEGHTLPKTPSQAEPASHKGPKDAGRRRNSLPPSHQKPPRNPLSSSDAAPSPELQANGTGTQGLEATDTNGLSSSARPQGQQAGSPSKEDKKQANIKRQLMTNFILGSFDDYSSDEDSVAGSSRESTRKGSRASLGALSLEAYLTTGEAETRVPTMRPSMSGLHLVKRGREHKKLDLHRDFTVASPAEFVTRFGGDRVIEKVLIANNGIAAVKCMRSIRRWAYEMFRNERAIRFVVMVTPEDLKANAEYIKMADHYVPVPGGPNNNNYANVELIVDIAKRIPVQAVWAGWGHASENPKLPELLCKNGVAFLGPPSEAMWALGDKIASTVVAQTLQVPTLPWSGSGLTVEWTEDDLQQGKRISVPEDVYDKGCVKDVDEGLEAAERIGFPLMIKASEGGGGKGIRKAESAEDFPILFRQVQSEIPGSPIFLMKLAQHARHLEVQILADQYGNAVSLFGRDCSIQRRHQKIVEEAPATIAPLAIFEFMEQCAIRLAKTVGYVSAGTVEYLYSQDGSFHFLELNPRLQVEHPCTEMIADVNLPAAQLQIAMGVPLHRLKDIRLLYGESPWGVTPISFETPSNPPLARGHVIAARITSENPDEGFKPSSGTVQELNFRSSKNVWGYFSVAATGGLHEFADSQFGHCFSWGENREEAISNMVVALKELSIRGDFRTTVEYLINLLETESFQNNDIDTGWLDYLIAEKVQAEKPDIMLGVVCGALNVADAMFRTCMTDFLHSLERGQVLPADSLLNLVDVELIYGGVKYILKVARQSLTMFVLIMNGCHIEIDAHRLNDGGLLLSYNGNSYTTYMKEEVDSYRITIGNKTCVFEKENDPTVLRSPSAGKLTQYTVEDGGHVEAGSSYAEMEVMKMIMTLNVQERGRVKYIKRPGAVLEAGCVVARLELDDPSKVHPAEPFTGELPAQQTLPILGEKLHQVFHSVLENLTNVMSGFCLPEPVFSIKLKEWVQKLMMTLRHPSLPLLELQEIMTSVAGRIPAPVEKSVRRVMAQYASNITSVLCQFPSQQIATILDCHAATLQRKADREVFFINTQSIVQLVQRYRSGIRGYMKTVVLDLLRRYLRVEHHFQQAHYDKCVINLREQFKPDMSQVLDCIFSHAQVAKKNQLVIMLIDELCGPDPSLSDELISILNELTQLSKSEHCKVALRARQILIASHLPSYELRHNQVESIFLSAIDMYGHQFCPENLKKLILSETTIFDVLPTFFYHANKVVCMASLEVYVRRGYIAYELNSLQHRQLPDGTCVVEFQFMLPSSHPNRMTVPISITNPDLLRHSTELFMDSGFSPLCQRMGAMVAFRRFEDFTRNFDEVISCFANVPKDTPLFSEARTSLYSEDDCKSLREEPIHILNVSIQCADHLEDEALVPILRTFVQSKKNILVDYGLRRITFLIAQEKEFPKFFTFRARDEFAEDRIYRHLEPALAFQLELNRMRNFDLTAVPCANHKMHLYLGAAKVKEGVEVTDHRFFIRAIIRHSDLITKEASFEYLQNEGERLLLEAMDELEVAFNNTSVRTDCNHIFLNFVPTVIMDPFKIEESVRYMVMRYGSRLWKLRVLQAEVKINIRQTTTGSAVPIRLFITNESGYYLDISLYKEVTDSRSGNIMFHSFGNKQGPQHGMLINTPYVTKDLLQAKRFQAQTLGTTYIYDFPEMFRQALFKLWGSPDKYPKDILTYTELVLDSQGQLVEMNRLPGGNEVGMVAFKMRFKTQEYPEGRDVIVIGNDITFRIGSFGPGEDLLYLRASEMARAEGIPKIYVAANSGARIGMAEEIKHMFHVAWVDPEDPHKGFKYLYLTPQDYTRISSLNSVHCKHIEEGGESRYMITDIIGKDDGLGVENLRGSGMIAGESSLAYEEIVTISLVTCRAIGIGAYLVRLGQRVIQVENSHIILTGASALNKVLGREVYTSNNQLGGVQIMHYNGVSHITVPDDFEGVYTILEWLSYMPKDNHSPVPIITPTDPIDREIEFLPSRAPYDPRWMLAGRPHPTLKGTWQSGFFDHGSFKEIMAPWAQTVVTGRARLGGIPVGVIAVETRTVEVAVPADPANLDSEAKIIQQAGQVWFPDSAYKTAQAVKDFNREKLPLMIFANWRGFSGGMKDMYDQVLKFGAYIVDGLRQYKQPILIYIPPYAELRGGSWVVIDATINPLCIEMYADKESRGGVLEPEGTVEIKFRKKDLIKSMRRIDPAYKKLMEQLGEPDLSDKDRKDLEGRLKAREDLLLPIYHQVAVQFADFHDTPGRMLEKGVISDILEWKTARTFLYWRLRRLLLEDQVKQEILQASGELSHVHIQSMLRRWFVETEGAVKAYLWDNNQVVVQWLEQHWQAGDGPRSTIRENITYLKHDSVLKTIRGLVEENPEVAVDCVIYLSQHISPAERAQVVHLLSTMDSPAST
Method: as §1, §2

| SMILES | inhibition at 1 µM (human ACC1) | inhibition at 1 µM (human ACC2) |
| --- | --- | --- |
| CCOc1cc(C(=O)N2CCC3(CC2)CC(=O)c2cc(-c4ccc(C(N)=O)cc4)ccc2O3)cc(OCC)c1-c1ccc(C(=O)O)cc1 [Example 3, 4′-({6-(4-Carbamoylphenyl)-4-oxospiro[chroman-2,4′-piperidin]-1′-yl}carbonyl)-2′,6′-diethoxybiphenyl-4-carboxylic acid] | 100% | 99% |
| CCOc1cc(C(=O)N2CCC3(CC2)CC(=O)c2cc(-c4ccc(C(N)=O)cn4)ccc2O3)cc(OCC)c1-c1ccc(C(=O)O)cc1 [Example 5] | 98% | 99% |
| Cc1nn(-c2ccc(C(=O)O)cc2)c2ccc(C(=O)N3CCC4(CC3)CC(=O)c3cc(-c5cnn(C)c5)ccc3O4)cc12 [Example 13, 4-(3-Methyl-5-{[6-(1-methyl-1H-pyrazol-4-yl)-4-oxospiro[chroman-2,4′-piperidin]-1′-yl]carbonyl}-1H-indazol-1-yl)benzoic acid] | 99% | 99% |
| CCOc1cc(C(=O)N2CCC3(CC2)CC(=O)c2cc(-c4cnn(C)c4)ccc2O3)cc(OCC)c1-c1ccc(C(=O)O)cc1 [Example 18, Sodium 2′,6′-diethoxy-4′-{[6-(1-methyl-1H-pyrazol-4-yl)-4-oxospiro[chroman-2,4′piperidin]-1′-yl]carbonyl}biphenyl-4-carboxylate] | 99% | 100% |
| CCOc1cc(C(=O)N2CCC3(CC2)CC(=O)c2cc(-c4cnn(C)c4)ccc2O3)cc(OCC)c1-c1cccc(C(=O)O)c1 [Example 20, Sodium 2′,6′-diethoxy-4′-{[6-(1-methyl-1H-pyrazol-4-yl)-4-oxospiro[chroman-2,4′-piperidin]-1′-yl]carbonyl}biphenyl-3-carboxylate] | 100% | 99% |
| CCOc1cc(C(=O)N2CCC3(CC2)CC(=O)c2cc(-c4cnn(C)c4)ccc2O3)cc(OCC)c1-c1cncc(C(=O)O)c1 [Example 21, 5-(2,6-Diethoxy-4-{[6-(1-methyl-1H-pyrazol-4-yl)-4-oxospiro[chroman-2,4′-piperidin]-1′-yl]carbonyl}phenyl)nicotinic acid] | 100% | 100% |
